System: hippocampal NSC/neural progenitors cells
Experiment: PACAP/BrdU infusion, BrdU labelling of the dentate gyrus
Format: in vivo, mouse
Details: 600 nM pump concentration, 0.5 μl/hr into the lateral ventricle, 3.5 days, relative to vehicle
Description: 10 week old male mice (C57B1/2), maintained on a 12 hr light/dark cycle with food and water ad libidum, were infused in the right lateral ventricle with PACAP38 (Bachem), using a Alzet pump (1007D), for 3,5 days or 7 days at a daily dose of 31 ng/day (600 nM PACAP pump concentration infused at a rate of 0.5 μl/hr). Bromodeoxyuridine (BrdU) (50 mg/ml) was also included in the infusion vehicle (0.9% saline containing 1 mg/ml mouse serum albumin (Sigma)) to enable measurement of proliferation by quantitation of BrdU incorporation in the DNA. The group of infused with either PACAP/BrdU or vehicle/BrdU for 3,5 days and sacrificed at this time point. […]
Brains were cut into 14-μm coronal sections using a cryostat-microtome. […] After 1 hour of washing, the BrdU-antibody complex was detected using 0.05% diaminobenzidine with 0.01% H2O2, and counterstained with Hematoxylin. […]
For all BrdU labelling experiments, three to six sections per animal were analysed. […] The number of BrdU-labelled cells per area of dentate granule cell layer was counted manually. […] BrdU-positive cells were counted along 2×250 micrometer strips of the lateral ventricle wall (see FIG. 18). Area measurements of both the dentate granule cell layer and the “counted” region of the lateral ventricle wall (including the ependymal cell layer and subventricular zone) were made from each slide used for the cell counts. […]

Substance: pituitary adenylate cyclase-activating polypeptide [PACAP]
- proliferation in the ipsilateral dentate gyrus (BrdU positive cells/mm^2): significant increase in proliferation

Source: patent publication US20040038888A1 (priority 2002, published 2004)
